Source: patent US7994140B2, “Classes of compounds that interact with GPCRs” (Alchemia Limited, priority 2002, dated 2011)

Molecular target: T1, MC4 (Homo sapiens, UniProt P32245)
T1 construct: purchased Perkin Elmer BioSignal; host or cells: HEK 293
Experiment: GPCR radioligand binding (RLB) assay, melanocortin MC4, [125I]NDP-αMSH
Conditions: 4.0 Micromolar
In short: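 Membranes from HEK 293 cells expressing the recombinant human receptor were equilibrated with [125I]SST-14 (SST5) or [125I]NDP-αMSH (MC4), then compound added for an optimized incubation. Bound ligand separated by filtration on PEI-coated glass fiber and counted by liquid scintillation.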

T1 sequence (P32245 whole entry): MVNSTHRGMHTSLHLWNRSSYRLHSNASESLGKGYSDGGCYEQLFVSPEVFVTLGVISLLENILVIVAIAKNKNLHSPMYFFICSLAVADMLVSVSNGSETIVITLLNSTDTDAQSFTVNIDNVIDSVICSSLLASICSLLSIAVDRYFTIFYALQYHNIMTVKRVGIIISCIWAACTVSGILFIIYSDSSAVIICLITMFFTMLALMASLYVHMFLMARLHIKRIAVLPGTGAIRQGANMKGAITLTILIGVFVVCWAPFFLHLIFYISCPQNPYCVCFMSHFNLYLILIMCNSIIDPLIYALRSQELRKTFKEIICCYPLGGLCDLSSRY

SMILES | MC4 Inhibition at 4.0 Micromolar (Example Library 11) | MC4 Inhibition at 4.0 Micromolar (Example Library 12)
NCCC(=O)NC1C(OCc2ccccc2)OC(COCc2ccccc2)C(O)C1OCc1ccc(Cl)cc1 (centres unmarked) [Compound 398] | + (Indicates inhibition greater than . . . 50%) | –
NCCC(=O)NC1C(OCc2ccccc2)OC(COCc2ccc(Cl)cc2)C(O)C1OCc1ccc(Cl)cc1 (centres unmarked) [Compound 399] | + (Indicates inhibition greater than . . . 50%) | –
NCCC(=O)NC1C(OCc2ccccc2)OC(COCc2ccc3ccccc3c2)C(O)C1OCc1ccc2ccccc2c1 (centres unmarked) [Compound 400] | + (Indicates inhibition greater than . . . 50%) | –
NCCC(=O)NC1C(OCc2ccccc2)OC(COCc2ccccc2)C(O)C1OCc1ccc2ccccc2c1 (centres unmarked) [Compound 401] | + (Indicates inhibition greater than . . . 50%) | –
NCCC(=O)NC1C(OCc2ccccc2)OC(COCc2ccc(Cl)cc2)C(O)C1OCc1ccc2ccccc2c1 (centres unmarked) [Compound 402] | + (Indicates inhibition greater than . . . 50%) | –
NCCC(=O)NC1C(OCc2ccccc2)OC(COCc2ccc3ccccc3c2)C(O)C1OCc1ccccc1 (centres unmarked) [Compound 403] | + (Indicates inhibition greater than . . . 50%) | –
NCCC(=O)NC1C(OCc2ccccc2)OC(COCc2ccccc2)C(O)C1OCc1ccccc1 (centres unmarked) [Compound 404] | + (Indicates inhibition greater than . . . 50%) | –
NCCC(=O)NC1C(OCc2ccccc2)OC(COCc2ccc(Cl)cc2)C(O)C1OCc1ccccc1 (centres unmarked) [Compound 405] | + (Indicates inhibition greater than . . . 50%) | –
NCCCC(=O)NC1C(OCc2ccccc2)OC(COCc2ccc3ccccc3c2)C(O)C1OCc1ccc(Cl)cc1 (centres unmarked) [Compound 406] | + (Indicates inhibition greater than . . . 50%) | –
NCCCC(=O)NC1C(OCc2ccccc2)OC(COCc2ccc(Cl)cc2)C(O)C1OCc1ccc(Cl)cc1 (centres unmarked) [Compound 407] | + (Indicates inhibition greater than . . . 50%) | –
NCCCC(=O)NC1C(OCc2ccccc2)OC(COCc2ccc3ccccc3c2)C(O)C1OCc1ccc2ccccc2c1 (centres unmarked) [Compound 408] | + (Indicates inhibition greater than . . . 50%) | –
NCCCC(=O)NC1C(OCc2ccccc2)OC(COCc2ccccc2)C(O)C1OCc1ccc2ccccc2c1 (centres unmarked) [Compound 409] | + (Indicates inhibition greater than . . . 50%) | –
NCCCC(=O)NC1C(OCc2ccccc2)OC(COCc2ccc(Cl)cc2)C(O)C1OCc1ccc2ccccc2c1 (centres unmarked) [Compound 410] | + (Indicates inhibition greater than . . . 50%) | –
NCCCC(=O)NC1C(OCc2ccccc2)OC(COCc2ccc3ccccc3c2)C(O)C1OCc1ccccc1 (centres unmarked) [Compound 411] | + (Indicates inhibition greater than . . . 50%) | –
NCCCC(=O)NC1C(OCc2ccccc2)OC(COCc2ccc(Cl)cc2)C(O)C1OCc1ccccc1 (centres unmarked) [Compound 412] | + (Indicates inhibition greater than . . . 50%) | –
NCCC(=O)NC1C(OCc2ccc3ccccc3c2)OC(COCc2ccc3ccccc3c2)C(O)C1OCc1ccc(Cl)cc1 (centres unmarked) [Compound 413] | + (Indicates inhibition greater than . . . 50%) | –
NCCC(=O)NC1C(OCc2ccc3ccccc3c2)OC(COCc2ccccc2)C(O)C1OCc1ccc(Cl)cc1 (centres unmarked) [Compound 414] | + (Indicates inhibition greater than . . . 50%) | –
NCCC(=O)NC1C(OCc2ccc3ccccc3c2)OC(COCc2ccc(Cl)cc2)C(O)C1OCc1ccc(Cl)cc1 (centres unmarked) [Compound 415] | + (Indicates inhibition greater than . . . 50%) | –

SMILES | MC4 Inhibition at 4.0 Micromolar (Example Library 11) | MC4 Inhibition at 4.0 Micromolar (Example Library 12)
NCCC(=O)NC1C(OCc2ccc3ccccc3c2)OC(COCc2ccc3ccccc3c2)C(O)C1OCc1ccc2ccccc2c1 (centres unmarked) [Compound 416] | + (Indicates inhibition greater than . . . 50%) | –
NCCC(=O)NC1C(OCc2ccc3ccccc3c2)OC(COCc2ccccc2)C(O)C1OCc1ccc2ccccc2c1 (centres unmarked) [Compound 417] | + (Indicates inhibition greater than . . . 50%) | –
NCCC(=O)NC1C(OCc2ccc3ccccc3c2)OC(COCc2ccc(Cl)cc2)C(O)C1OCc1ccc2ccccc2c1 (centres unmarked) [Compound 418] | + (Indicates inhibition greater than . . . 50%) | –
NCCC(=O)NC1C(OCc2ccc3ccccc3c2)OC(COCc2ccc3ccccc3c2)C(O)C1OCc1ccccc1 (centres unmarked) [Compound 419] | + (Indicates inhibition greater than . . . 50%) | –
NCCC(=O)NC1C(OCc2ccc3ccccc3c2)OC(COCc2ccccc2)C(O)C1OCc1ccccc1 (centres unmarked) [Compound 420] | + (Indicates inhibition greater than . . . 50%) | –
NCCC(=O)NC1C(OCc2ccc3ccccc3c2)OC(COCc2ccc(Cl)cc2)C(O)C1OCc1ccccc1 (centres unmarked) [Compound 421] | + (Indicates inhibition greater than . . . 50%) | –
NCCCC(=O)NC1C(OCc2ccc3ccccc3c2)OC(COCc2ccc3ccccc3c2)C(O)C1OCc1ccc(Cl)cc1 (centres unmarked) [Compound 422] | + (Indicates inhibition greater than . . . 50%) | –
NCCCC(=O)NC1C(OCc2ccc3ccccc3c2)OC(COCc2ccccc2)C(O)C1OCc1ccc(Cl)cc1 (centres unmarked) [Compound 423] | + (Indicates inhibition greater than . . . 50%) | –
NCCCC(=O)NC1C(OCc2ccc3ccccc3c2)OC(COCc2ccc(Cl)cc2)C(O)C1OCc1ccc(Cl)cc1 (centres unmarked) [Compound 424] | + (Indicates inhibition greater than . . . 50%) | –
NCCCC(=O)NC1C(OCc2ccc3ccccc3c2)OC(COCc2ccc3ccccc3c2)C(O)C1OCc1ccc2ccccc2c1 (centres unmarked) [Compound 425] | + (Indicates inhibition greater than . . . 50%) | –
NCCCC(=O)NC1C(OCc2ccc3ccccc3c2)OC(COCc2ccccc2)C(O)C1OCc1ccc2ccccc2c1 (centres unmarked) [Compound 426] | + (Indicates inhibition greater than . . . 50%) | –
NCCCC(=O)NC1C(OCc2ccc3ccccc3c2)OC(COCc2ccc(Cl)cc2)C(O)C1OCc1ccc2ccccc2c1 (centres unmarked) [Compound 427] | + (Indicates inhibition greater than . . . 50%) | –
NCCCC(=O)NC1C(OCc2ccc3ccccc3c2)OC(COCc2ccc3ccccc3c2)C(O)C1OCc1ccccc1 (centres unmarked) [Compound 428] | + (Indicates inhibition greater than . . . 50%) | –
NCCCC(=O)NC1C(OCc2ccc3ccccc3c2)OC(COCc2ccccc2)C(O)C1OCc1ccccc1 (centres unmarked) [Compound 429] | + (Indicates inhibition greater than . . . 50%) | –
NCCCC(=O)NC1C(OCc2ccc3ccccc3c2)OC(COCc2ccc(Cl)cc2)C(O)C1OCc1ccccc1 (centres unmarked) [Compound 430] | + (Indicates inhibition greater than . . . 50%) | –
N=C(N)NCC(=O)N[C@H]1C(OCc2ccccc2)O[C@H](COCc2ccc3ccccc3c2)[C@@H](O)[C@@H]1OCc1ccc(Cl)cc1 (some centres unmarked) [Compound 431] | – | + (Indicates inhibition greater than . . . 50%)
N=C(N)NCC(=O)N[C@H]1C(OCc2ccccc2)O[C@H](COCc2ccc3ccccc3c2)[C@@H](O)[C@@H]1OCc1ccc(Cl)cc1 (some centres unmarked) [Compound 432] | – | + (Indicates inhibition greater than . . . 50%)
